Laboratory results as given in paper PMC8303947, “Evaluation of Ruthenium(II) N-Heterocyclic Carbene Complexes as Antibacterial Agents and Inhibitors of Bacterial Thioredoxin Reductase” (Molecules, 2021).
≈ marks a conversion by molar mass, not a printed value. Read-outs that look alike come from different tables or passages of the source.

Legend:
E. coli DSM 30083 = test: Antimicrobial microtiter plate MIC assay, E. coli; type: cell-based, Escherichia coli; settings: Mueller Hinton broth, 16–18 h at 37 °C
Method: (§1) The fungus Candida albicans was used as a non-bacterial reference organism. The broad-spectrum antibiotic Ciprofloxacin was used as a reference drug.
(§2) Compounds were tested in a microtiter plate assay according to CLSI guidelines against E. coli DSM 30083, A. baumannii DSM 30007, P. aeruginosa DSM 50071, B. subtilis DSM 402, S. aureus DSM 20231, S. aureus ATCC 43300 (MRSA), and C. albicans, as described previously. E. coli, A. baumannii, S. aureus, and B. subtilis were grown in Mueller Hinton broth, P. aeruginosa in cation-adjusted Mueller Hinton II, and C. albicans DSM1386 in Sabouraud broth. Compounds were dissolved in DMSO at 10 mg/mL. Starting from a 10 mg/mL stock solution, serial dilutions in culture media were prepared with the Tecan Freedom Evo 75 liquid handling workstation (Tecan, Männedorf, Switzerland), covering a range from 512 to 0.5 µg/mL. Assay volumes were 200 µL per well. After inoculating with 5 × 10^5 bacteria/mL from late exponential cultures grown in the same media, cultures were incubated for 16–18 h at 37 °C. The lowest compound concentration inhibiting visible bacterial growth was recorded as MIC.

B. subtilis 168 = test: Antimicrobial microtiter plate MIC assay, B. subtilis; type: cell-based, Bacillus subtilis; settings: Gram-positive, B. subtilis 168 (DSM 402), Mueller Hinton broth, 16–18 h at 37 °C
Method: as §1, §2

A. baumannii DSM 30007 = test: Antimicrobial microtiter plate MIC assay, A. baumannii; type: cell-based, Acinetobacter baumannii; settings: Mueller Hinton broth, 16–18 h at 37 °C
Method: as §1, §2

S. aureus DSM 20231 = test: Antimicrobial microtiter plate MIC assay, S. aureus DSM 20231; type: cell-based, Staphylococcus aureus; settings: Mueller Hinton broth, 16–18 h at 37 °C
Method: as §1, §2

[1] = tested on: S. aureus ATCC 43300 (MRSA); test: Antimicrobial microtiter plate MIC assay, S. aureus ATCC 43300 (MRSA); type: cell-based, Staphylococcus aureus; settings: Gram-positive, Mueller Hinton broth, 16–18 h at 37 °C
Method: as §1, §2

C. albicans DSM 1386 = test: Antimicrobial microtiter plate MIC assay, C. albicans; type: cell-based, Candida albicans; settings: Sabouraud broth
Method: as §1
E. coli, A. baumannii, S. aureus, and B. subtilis were grown in Mueller Hinton broth, P. aeruginosa in cation-adjusted Mueller Hinton II, and C. albicans DSM1386 in Sabouraud broth. Compounds were dissolved in DMSO at 10 mg/mL. […] Assay volumes were 200 µL per well. After inoculating with 5 × 10^5 bacteria/mL from late exponential cultures grown in the same media, cultures were incubated for 16–18 h at 37 °C. The lowest compound concentration inhibiting visible bacterial growth was recorded as MIC.

P. aeruginosa DSM 50071 = test: Antimicrobial microtiter plate MIC assay, P. aeruginosa; type: cell-based, Pseudomonas aeruginosa; settings: cation-adjusted Mueller Hinton II, 16–18 h at 37 °C
Method: as §1, §2

E. coli TrxR = target: T1, E. coli TrxR (Escherichia coli, UniProt P0A9P4); test: Inhibition of bacterial TrxR (E. coli), 5,5-dithiobis-(2-nitrobenzoic acid) reduction assay; type: biochemical
T1 construct: purchased Merck (Darmstadt, Germany)
Method: The inhibition of TrxR has been considered as a novel mode of action for antibiotics and in our previous report, the relevance for gold NHC complexes had been shown.
The TrxR (E. coli) inhibition assay was performed according to a previously published procedure. It is partly based on the procedure developed by Lu et al. and detects the formation of 5-TNB (5-thionitrobenzoic acid). Solutions of E. coli TrxR (35.4 U/mL) and of its substrate thioredoxin (Trx) E. coli (156 µg/mL) (both purchased from Merck (Darmstadt, Germany) and diluted with distilled water) and fresh stock solutions of the test compounds (in DMF) were prepared. TE buffer (Tris-HCl 50 mM, EDTA 1 mM, pH 7.5) containing graded concentrations of the respective compounds (20 µL) or buffer without compounds (20 µL, as control) were mixed with TrxR solution (10 µL), Trx solution (10 µL), and a solution of NADPH (200 µM) in TE buffer (100 µL) in a well on a 96-well plate. As blank solution, 200 µM NADPH in TE buffer (100 µL) mixed with a DMF/buffer mixture (40 µL) was used (final concentrations of DMF: 0.5% v/v). The solutions on the 96-well plates were incubated for 75 min at 25 °C with moderate shaking. […] The highest test compound concentration was used and the enzyme solution was replaced by TE buffer for this purpose.

[2] = Escherichia coli, DSM30083, Gram-negative
[3] = purified E. coli TrxR, DTNB reduction, 75 min preincubation at 25 °C, mean (±SD) of three experiments, read-out: IC50 inhibition of E. coli TrxR
[4] = Acinetobacter baumannii, DSM30007, Gram-negative
[5] = Staphylococcus aureus, DSM20231, Gram-positive
[6] = Candida albicans, DSM1386, fungus
[7] = Pseudomonas aeruginosa, DSM50071, Gram-negative

T1 sequence (P0A9P4 whole entry): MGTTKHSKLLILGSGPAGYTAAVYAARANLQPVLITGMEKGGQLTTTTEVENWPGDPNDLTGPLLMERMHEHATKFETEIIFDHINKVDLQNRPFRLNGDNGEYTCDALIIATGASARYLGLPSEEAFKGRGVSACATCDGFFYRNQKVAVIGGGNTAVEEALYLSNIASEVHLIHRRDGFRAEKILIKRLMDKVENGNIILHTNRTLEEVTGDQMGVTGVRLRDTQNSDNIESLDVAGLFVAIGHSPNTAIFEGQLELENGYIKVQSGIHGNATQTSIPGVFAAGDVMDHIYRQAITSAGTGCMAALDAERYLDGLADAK

| Compound | MIC (E. coli DSM 30083; Gram-negative) [µM] | MIC (B. subtilis 168) [µM] | MIC (A. baumannii DSM 30007; Gram-negative) [µM] | MIC (S. aureus DSM 20231; Gram-positive) [µM] | MIC [1] [µM] | MIC (C. albicans DSM 1386; fungus) [µM] | MIC (P. aeruginosa DSM 50071; Gram-negative) [µM] | MIC (E. coli DSM 30083; [2]) [µM] | MIC (B. subtilis 168; Bacillus subtilis, DSM402) [µM] | IC50 (E. coli TrxR; [3]) [µM] | MIC (A. baumannii DSM 30007; [4]) [µM] | MIC (S. aureus DSM 20231; [5]) [µM] | MIC ([1]; Staphylococcus aureus) [µM] | MIC (C. albicans DSM 1386; [6]) [µM] | MIC (P. aeruginosa DSM 50071; [7]) [µM] | IC50 (E. coli TrxR) [µM] |
| --- | --- | --- | --- | --- | --- | --- | --- | --- | --- | --- | --- | --- | --- | --- | --- | --- |
| Cc1ccc(C(C)C)cc1.Fc1ccc2c(c1)n(Cc1ccccc1)[c](=[Ru]([Cl])[Cl])n2Cc1ccccc1 [3d, (1,3-Dibenzyl-5-fluoro-1H-benzimidazol-2-ylidene)-dichlorido-(η^6-p-cymene)ruthenium(II)] | 822.4 | 25.7 | 205.6 | 25.7 | 25.7 | >822.4 | >822.4 |  |  |  |  |  |  |  |  |  |
| c1ccc(Cn2c[n+](Cc3ccccc3)c3ccccc32)cc1 [2a] |  |  |  |  |  |  |  | 1350 | 169 | > 100 | 1350 | 42.2 | 42.2 | 1350 | 1350 |  |
| Cc1ccc(C(C)C)cc1.[Cl][Ru]([Cl])=[c]1n(Cc2ccccc2)c2ccc(Br)cc2n1Cc1ccccc1 [3f, (1,3-Dibenzyl-5-bromo-1H-benzimidazol-2-ylidene)-dichlorido-(η^6-p-cymene)ruthenium(II)] | 374.6 | 11.7 | >749.1 | 23.4 | 11.7 | >749.1 | >749.1 |  |  | > 100 |  |  |  |  |  |  |
| COc1ccc2c(c1)n(Cc1ccccc1)[c](=[Ru]([Cl])[Cl])n2Cc1ccccc1.Cc1ccc(C(C)C)cc1 [3c, (1,3-Dibenzyl-5-methoxy-1H-benzimidazol-2-ylidene)-dichlorido-(η^6-p-cymene)ruthenium(II)] | >806.8 | 25.2 | >806.8 | 25.2 | 25.2 | >806.8 | >806.8 |  |  |  |  |  |  |  |  |  |
| 1,3-Dibenzyl-5-methoxy-1H-benzimidazolium bromide [2c] | 1250.8 | 78.2 | 1250.8 | 19.5 | 19.5 | 1250.8 | 1250.8 |  |  |  |  |  |  |  |  |  |
| Brc1ccc2c(c1)n(Cc1ccccc1)c[n+]2Cc1ccccc1 [2f, 1,3-Dibenzyl-5-bromo-1H-benzimidazolium bromide] |  |  |  |  |  |  |  | > 1120 | 279 |  | > 1120 | 140 | 69.8 | > 1120 | > 1120 | > 100 |
| Cc1ccc(C(C)C)cc1.Cc1ccc2c(c1)n(Cc1ccccc1)[c](=[Ru]([Cl])[Cl])n2Cc1ccccc1 [3b, (1,3-Dibenzyl-5-methyl-1H-benzimidazol-2-ylidene)-dichlorido-(η^6-p-cymene)ruthenium(II)] | 827.7 | 25.9 | 413.8 | 25.9 | 25.9 | >827.7 | 413.8 |  |  | 14 |  |  |  |  |  |  |
| Cc1ccc2c(c1)n(Cc1ccccc1)c[n+]2Cc1ccccc1 [2b, 1,3-Dibenzyl-5-methyl-1H-benzimidazolium bromide] |  |  |  |  |  |  |  | 1300 | 651 |  | 1300 | 81.4 | 163 | 1300 | 1300 | > 100 |
| O=C(O)c1cn(C2CC2)c2cc(N3CCNCC3)c(F)cc2c1=O [Ciprofloxacin, reference compound] |  |  |  |  |  |  |  | 1.5 (≈ 0.497 µg/mL) | 24 (≈ 7.95 µg/mL) |  | 24 (≈ 7.95 µg/mL) | 12 (≈ 3.98 µg/mL) | 12 (≈ 3.98 µg/mL) |  | 1.2 (≈ 0.398 µg/mL) |  |
| 1,3-Dibenzyl-5-fluoro-1H-benzimidazolium bromide [2d] | 1288.7 | 322.2 | >1288.7 | 161.1 | 161.1 | >1288.7 | >1288.7 |  |  |  |  |  |  |  |  |  |
| 1,3-Dibenzyl-5-chloro-1H-benzimidazolium bromide [2e] | 1242.6 | 155.3 | 1242.6 | 77.7 | 77.7 | 1242.6 | 1242.6 |  |  |  |  |  |  |  |  |  |
| Cc1ccc(C(C)C)cc1.Clc1ccc2c(c1)n(Cc1ccccc1)[c](=[Ru]([Cl])[Cl])n2Cc1ccccc1 [3e, (1,3-Dibenzyl-5-chloro-1H-benzimidazol-2-ylidene)-dichlorido-(η^6-p-cymene)ruthenium(II)] | 401.2 | 25.1 | >802.4 | 25.1 | 12.5 | >802.4 | >802.4 |  |  |  |  |  |  |  |  |  |
